We go through five compounds from patent US20250270216A1, “ANTI-INFECTIVE AGENTS” (UNIVERSITY OF DUNDEE, priority 2022, published 2025).

In assay [1] the target is PfLysRS (Plasmodium falciparum, UniProt Q8IDJ8). The following applies: Hoepfner et al, Cell Host Microbe, 2012; cited from earlier work.
Assay [2] relates to Cryptosporidium parvum. The assay can be described thus: In vitro inhibition of Cryptosporidium (method of Bessoff et al.). It counts as cell-based. The following applies: read-out: C. parvum PEC50 (converted). The source says: Assay Method for Measurement of In Vitro Inhibition of Cryptosporidium
These experiments were run in accordance with the method of Besssoff et. al. Antimicrob. Agents Chemother. 2013, 57:1804-1814. Results from these experiments are provided in the Experimental Results hereinafter.

Assay [3] relates to Hep G2 (Human hepatocyte carcinoma). The assay can be described thus: In vitro inhibition of HepG2 cells (cytotoxicity). The following applies: read-out: Hs HepG2 PEC50 (converted). The class given is cell-based. The source says: Assay Method for Measurement of In Vitro Inhibition of HepG2 Cells (Cytotoxicity)
These experiments were run in accordance with the method of Mersch-Sundermann V et. al. Toxicology 2004, 198:329-340

Assay [4] has as its target T1, Human lysyl tRNA Synthetase (KRS) (Homo sapiens, UniProt Q15046).
T1 construct: His tag with PreScission site (His PP pET15b); made in house; host or cells: E. coli BL21 (DE3)
The assay can be described thus: In vitro inhibition of human lysyl tRNA synthetase (KRS), Biomol green phosphate detection. The class given is biochemical. The following applies: 3.5 μM ATP, 6 μM L-Lysine, 5 h room temperature; read-out: Hs KRS pIC50 (converted). As to the method:
The gene coding for Human KRS, codon optimized for expression in E. coli, was obtained from Genscript and cloned into a His PP pET15b vector using Nde1 and Xho1 restriction sites. The resulting vector was used to transform BL21 (DE3) competent cells for protein expression. A 120 ml overnight culture was set up and grown at 37° C. 200 rpm for 16 h and used the next day to inoculate 6 litres of Autoinduction+AMP medium. This culture was grown at 37° C. for 4 h then 20° C. for 20 h. The cells were harvested by centrifugation at 3,500 g for 30 min then stored at −20° C. The resulting cell pellet was 50 g. Lysis buffer (150 ml, 25 mM HEPES/500 mM NaCl/20 mM imidazole/2 mM DTT/10% glycerol pH 7.5/protease inhibitor tablets/DNAase) was added and the pellets for defrosted at room temperature for approximately 10 min. The slurry was then passed through a Cell Disrupter (Constant Systems) set at […] to lyse the cells. The sample was then centrifuged at 40,000 g for 20 min. The supernatant was then filtered using syringe filters to 0.45 μm. The supernatant was loaded onto a 5 ml HiTrap Ni HP column that had been equilibrated with BufferA (25 mM HEPES/500 mM NaCl/20 mM Imidazole/2 mM DTT/10% Glycerol pH 7.5) at 5 ml/min using an AKTA Pure system. Once loaded the column was washed with 10 column volumes buffer A. A 5% step of Buffer B (25 mM HEPES/500 mM NaCl/500 mM Imidazole/2 mM DTT/10% Glycerol pH 7.5) was then used to wash off His rich contaminating proteins. A gradient of 5-50% B was used to elute the protein. Approximately 55 mg of protein was present in the fractions containing the HsKRS protein. The sample was then passed through a 0.2 μm filter, before loading onto a XK26/60 Superdex 200 column equilibrated with Buffer C (25 mM HEPES/150 mM NaCl/2 mM DTT/10% glycerol pH 7.0) using an AKTA Pure system at 4° C. at 2 ml/min. The sample was then dialyzed into 25 mM HEPES/500 mM NaCl//2 mM DTT/10% glycerol/0.25% azide pH 7.0. The protein was concentrated to 1 mg/ml and frozen at −80° C. Approximately 23 mg of protein was produced.
Assay Method for Measurement of In Vitro Inhibition of Human lysyl tRNA Synthetase (KRS)
Potency of compounds was determined in 10 points dose-response inhibition curves. Compounds were transferred into 384-well clear bottom plates (Greiner Bio-One, 781101) using an Echo 550 acoustic dispenser (Labcyte). Using an automatic liquid dispenser, 50 μL reaction mixes were prepared by adding 25 μL of substrate mix into all wells followed by the addition of 25 μL enzyme mix into all wells (final reaction: 30 mM Tris-HCl, pH 8.0, 40 mM MgCl2, 140 mM NaCl, 30 mM KCl, 0.01% Brij-35, 1 mM DTT, 3.5 μM ATP, 6 μM L-Lysine, 200 nM […] and 0.5 U/mL Pyrophosphatase). Complete inhibition control reactions were performed in the presence of 100 μM of control compoundand the plates were incubated at room temperature for 5 h. Reactions were stopped by the addition of Biomol green (50 μL: Enzo Life Sciences) with the amount of free phosphate detected by measuring absorbance (650 nm) after 20 min further incubation (BMG Pherastar plate reader). Counter screen assays to eliminate direct inhibition of pyrophsphatase were performed using 0.5 U/mL pyrophosphatase and 3 μM pyrophosphate as substrate in the same assay buffer (30 mM Tris-HCl, pH 8.0, 40 mM MgCl2, 140 mM NaCl, 30 mM KCl, 0.01% Brij-35, 1 mM DTT) for 5 hours at room temperature. Biomol green was added and incubated for 20 min before detection as above. Samples were run in duplicate and data was processed and analysed using ActivityBase (IDBS).

Assay [5] has as its target Cryptosporidium parvum lysyl t-RNA synthetase (Cp KRS) (Cryptosporidium parvum, UniProt Q5CR27). The assay can be described thus: In vitro inhibition of Cryptosporidium lysyl tRNA synthetase (KRS), Biomol green phosphate detection. The class given is biochemical. The note with it: 300 nM CpKRS, 500 μM ATP, 1.2 mM L-Lysine, 8 h room temperature; read-out: C. parvum KRS pIC50 (converted). The source says: The protein expression and purification method for recombinant CpKRS was described in Baragana et aL, PNAS, 2019, 116 (4), 7015-7020 and will be summarised below.
The C. parvum KRS had 45 residues removed at the N-terminus. All amplicons were cloned into the pAVA0421 expression vector using the ligation independent cloning (LIC) method. Recombinant plasmids were transformed into Rosetta BL21(DE3) competent cells and plated on LB agar plates with ampicillin, carbenicillin, and chloramphenicol selection. Clones were expressed using previously reported autoinduction methods and scaled to 2-litre cultures in a shake flasks. Cell pellets were harvested and lysed with 100 mM HEPES/150 mM NaCl/5% Glycerol/20 mM imidazole/0.5 mM TCEP pH 7.5/DNase/Complete inhibitor tablets) using a Cell Disrupter (Constant Systems) at 30 KPSI and centrifuged at 40,000 g for 20 min remove cell debris. The supernatant was loaded onto a 5 ml HiTrap Ni HP column that had been equilibrated with Buffer A (100 mM HEPES/150 mM NaCl/5% Glycerol/20 mM imidazole/0.5 mM TCEP pH 7.5) at 5 ml/min using an AKTA Pure system. Once loaded the column was washed with 10 column volumes of buffer A. A 5% step of Buffer B (100 mM HEPES/150 mM NaCl/5% Glycerol/500 mM imidazole/0.5 mM TCEP pH 7.5) was then used to wash off His-rich contaminating proteins. A linear gradient of 5-50% B was used to elute the protein. Approximately 287 mg of protein was present in the fractions containing the CpKRS protein. The sample was then concentrated to approximately 30 ml, passed through a 0.2 μm filter, before loading onto a XK26/60 Superdex 200 column using an AKTA Pure system at 4° C. at 2 ml/min 10 ml at a time. The eluted protein was pooled then frozen at −80° C. The concentration of the protein was 1.3 mg/ml. Sometimes the protein was cleaved with PreScission protease overnight, a second Ni column performed in flow through mode to removed uncleaved protein. GST beads were then added to remove the PreScission Protease. The protein was then gel filtered as descripted above.
Assay Method for Measurement of In Vitro Inhibition of Cryptosporidium lysyl tRNA Synthetase (KRS)
Potency of compounds was determined in 10 points dose-response inhibition curves. Compounds were transferred into 384-well clear bottom plates (Greiner Bio-One, 781101) using an Echo 550 acoustic dispenser (Labcyte). Using an automatic liquid dispenser, 50 μL reaction mixes were prepared by adding 25 μL of substrate mix into all wells followed by the addition of 25 μL enzyme mix into compounds and no inhibition control wells (final reaction: 100 mM HEPES, pH 7.4, 20 mM MgCl2, 1 mM DTT, 500 μM ATP, 1.2 mM L-Lysine, 300 nM CpKRS and 0.5 U/mL Pyrophosphatase). Complete inhibition control reactions were performed in the absence of enzyme and the plates were incubated at room temperature for 8 h. Reactions were stopped by the addition of Biomol green (50 μL: Enzo Life Sciences) with the amount of free phosphate detected by measuring absorbance (650 nm) after 20 min further incubation (BMG Pherastar plate reader). Counter screen assays to eliminate direct inhibition of pyrophosphatase were performed using 0.5 U/mL pyrophosphatase and 3 μM pyrophosphate as substrate in the same assay buffer (100 mM HEPES, pH 7.4, 20 mM MgCl2, 1 mM DTT) for 8 hours at room temperature. Biomol green was added and incubated for 20 min before detection as above. Samples were run in duplicate and data was processed and analysed using ActivityBase (IDBS).

In assay [6] the test system is Cryptosporidium. The note with it: Cryptosporidium-HIV co-infected patients not co-treated with HIV antiretroviral therapy; cited from earlier work.

T1 sequence (Q15046 whole entry): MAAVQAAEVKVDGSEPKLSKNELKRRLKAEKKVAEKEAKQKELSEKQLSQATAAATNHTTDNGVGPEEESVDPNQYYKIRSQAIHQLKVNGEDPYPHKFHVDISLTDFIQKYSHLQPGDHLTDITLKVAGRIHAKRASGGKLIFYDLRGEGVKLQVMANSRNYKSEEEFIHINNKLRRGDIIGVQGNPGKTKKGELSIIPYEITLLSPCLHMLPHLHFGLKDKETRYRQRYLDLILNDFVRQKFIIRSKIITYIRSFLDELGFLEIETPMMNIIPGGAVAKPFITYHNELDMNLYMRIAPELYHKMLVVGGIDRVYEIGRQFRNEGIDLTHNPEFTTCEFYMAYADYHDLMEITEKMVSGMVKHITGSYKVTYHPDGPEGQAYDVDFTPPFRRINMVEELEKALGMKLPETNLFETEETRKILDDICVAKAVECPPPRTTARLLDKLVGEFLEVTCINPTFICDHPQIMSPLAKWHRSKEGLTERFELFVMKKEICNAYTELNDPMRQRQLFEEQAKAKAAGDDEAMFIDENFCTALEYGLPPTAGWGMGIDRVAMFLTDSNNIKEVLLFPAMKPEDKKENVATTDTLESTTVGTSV
Sequence of Cryptosporidium parvum lysyl t-RNA synthetase (Cp KRS) (Q5CR27 entry or part of it): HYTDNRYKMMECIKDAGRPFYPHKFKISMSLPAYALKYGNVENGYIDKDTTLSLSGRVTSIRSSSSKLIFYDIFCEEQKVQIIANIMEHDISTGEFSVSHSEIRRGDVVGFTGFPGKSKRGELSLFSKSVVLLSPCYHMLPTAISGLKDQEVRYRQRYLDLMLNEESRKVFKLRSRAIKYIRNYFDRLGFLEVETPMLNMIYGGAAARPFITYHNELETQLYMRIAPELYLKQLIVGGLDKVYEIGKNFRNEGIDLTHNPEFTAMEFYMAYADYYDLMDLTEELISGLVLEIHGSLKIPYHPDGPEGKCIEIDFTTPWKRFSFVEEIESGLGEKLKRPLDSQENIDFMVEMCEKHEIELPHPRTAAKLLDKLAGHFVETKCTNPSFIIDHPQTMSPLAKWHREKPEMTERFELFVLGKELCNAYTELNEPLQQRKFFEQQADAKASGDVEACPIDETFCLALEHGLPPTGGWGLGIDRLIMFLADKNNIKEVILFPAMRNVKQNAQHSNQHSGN
Sequence of PfLysRS (Q8IDJ8 1-583): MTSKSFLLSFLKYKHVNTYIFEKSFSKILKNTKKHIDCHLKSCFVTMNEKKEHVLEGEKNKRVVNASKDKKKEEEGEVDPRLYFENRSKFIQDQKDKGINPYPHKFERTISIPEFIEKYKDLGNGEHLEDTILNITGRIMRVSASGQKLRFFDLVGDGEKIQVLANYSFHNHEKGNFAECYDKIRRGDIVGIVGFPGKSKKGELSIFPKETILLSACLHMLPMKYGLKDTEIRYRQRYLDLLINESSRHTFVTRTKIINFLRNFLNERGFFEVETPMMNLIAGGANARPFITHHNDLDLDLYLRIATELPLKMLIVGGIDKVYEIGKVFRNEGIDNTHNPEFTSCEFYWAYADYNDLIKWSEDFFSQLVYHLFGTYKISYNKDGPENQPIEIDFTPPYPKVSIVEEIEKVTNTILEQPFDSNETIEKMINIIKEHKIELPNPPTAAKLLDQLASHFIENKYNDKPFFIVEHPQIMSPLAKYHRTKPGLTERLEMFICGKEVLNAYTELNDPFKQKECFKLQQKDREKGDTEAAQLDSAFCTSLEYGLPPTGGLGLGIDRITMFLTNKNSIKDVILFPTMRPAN

In the case of `C[C@H]1CCC[C@H](C[C@H]2Cc3cc(O)cc(O)c3C(=O)O2)O1` [Cladosporin, cladosporin], the “selectivity for PfLysRS vs HsLysRS” value in assay [1] is on record as “more than 100 fold”.
For `Nc1nc2c(c(C(F)(F)F)n1)C(=O)N(C[C@@H]1CCC[C@@H](C(F)(F)F)C1)C2` [Compound 5, 2-amino-4-(trifluoromethyl)-6-(((1R,3R)-3-(trifluoromethyl)cyclohexyl)methyl)-6,7-dihydro-5H-pyrrolo[3,4-d]pyrimidin-5-one], the EC50 in assay [2] is 0.0501 µM; in assay [3], 15.8 µM. Further, the IC50 in assay [4] is 20 µM; in assay [5], 1.58 µM.
`Nc1nc2c(c(C(F)(F)F)n1)C(=O)N(C[C@H]1CCC[C@@H](C(F)(F)F)C1)C2` [Compound 6, 2-amino-4-(trifluoromethyl)-6-(((1S,3R)-3-(trifluoromethyl)cyclohexyl)methyl)-6,7-dihydro-5H-pyrrolo[3,4-d]pyrimidin-5-one]: in assay [3], the EC50 is greater than 100 µM. Besides, the IC50 is greater than 100 µM in assay [4] and greater than 50.1 µM in assay [5].
Turning to `Nc1nc2c(c(C(F)(F)F)n1)C(=O)N(C[C@H]1CCC[C@H](C(F)(F)F)C1)C2` [Compound 7, 2-amino-4-(trifluoromethyl)-6-(((1S,3S)-3-(trifluoromethyl)cyclohexyl)methyl)-6,7-dihydro-5H-pyrrolo[3,4-d]pyrimidin-5-one], the EC50 in assay [3] is 79.4 µM. The IC50 in assay [4] was 63.1 µM; in assay [5] it was 15.8 µM.
Regarding `CC(=O)Oc1ccccc1C(=O)Nc1ncc([N+](=O)[O-])s1` [Nitazoxanide], in assay [6], the “efficacy in clinical trials” value is “ineffective”.
